Usually inhibition stands for the share of the control response that was lost under treatment. What is called IC50 is the concentration that inhibits the measured activity by half. Read a low IC50 as inhibition by little substance.

Data set [1] is described as follows: (§1) Antiproliferative activity against Con A-induced BALB/c mouse splenocytes at 30 uM after 48 hrs by CCK-8 method relative to control. In kind it is functional. Particulars: Splenocyte. Background: Formazan colour is commonly taken as a measure of viable cells.
Data set [2] in a line: Cytotoxicity against BALB/c mouse splenocytes up to 110 uM after 48 hrs by CCK-8 method. In kind it is cell-based. Particulars: splenocyte.
Data set [3] can be described thus: Antiproliferative activity against Con A-induced BALB/c mouse splenocytes after 48 hrs by CCK-8 method relative to control. In kind it is functional, cell-based. Particulars: Splenocyte.
The next data set deals with Splenocyte. The data set is described as §1. Format: functional.

The source made the active and inactive calls. The rule behind the calls is not given here.

With `N#CC[C@H]1N[C@H](CO)[C@H](O)[C@H](O)[C@H]1O`, the inhibition at 30 µM in data set [1] worked out at 27.9%.

`O=C(O)[C@H]1N[C@H](CO)[C@H](O)[C@H](O)[C@H]1O` showed an inhibition at 30 µM in data set [1] of 7.2%. For `O=C(O)CC[C@H]1N[C@H](CO)[C@H](O)[C@H](O)[C@H]1O`, the inhibition at 30 µM in data set [1] was found to be 4.9%. For the compound `OC[C@H]1N[C@H](CCl)[C@H](O)[C@@H](O)[C@H]1O`, the inhibition at 30 µM in data set [1] was 20.8%. On the same count and under the same terms, under `OCCC[C@H]1N[C@@H](CO)[C@H](O)[C@H](O)[C@H]1O` stands 19.3%; under `OCCC[C@H]1N[C@H](CO)[C@H](O)[C@H](O)[C@H]1O`, 14.6%.

For `OC[C@H]1N[C@H](CO)[C@H](O)C(O)[C@H]1O` (stereo not given in full), in data set [1], the inhibition at 30 µM came out at 7.8%.

On to `O=C(O)CC[C@H]1N[C@@H](CO)[C@H](O)[C@H](O)[C@H]1O`, for which the inhibition at 30 µM in data set [1] stood at 6.4%.

In turn, `CCCCCCCCCN1[C@H](CCl)[C@H](O)[C@@H](O)[C@@H](O)[C@@H]1CO` registered an inhibition at 30 µM in data set [1] of 43.6%. Moreover, in data set [2], the Activity entry is reported as “Non-toxic”. This compound showed an IC50 in data set [3] of 45 µM. Compound `OC[C@@H]1N[C@H](CO)[C@H](O)[C@@H](O)[C@H]1O` had an inhibition at 30 µM in data set [1] of 9.7%. `O=C(O)[C@H]1N[C@@H](CO)[C@H](O)[C@H](O)[C@H]1O`: the inhibition result with Splenocyte is “inactive”. With `CCCCCCN1[C@H](CO)[C@H](O)[C@H](O)[C@@H](O)[C@H]1CCl`, 30 µM produced 38.9% inhibition in data set [1]. The same measure, in the same setting: under `CCCCCCN1[C@H](CO)[C@H](O)C(O)[C@@H](O)[C@H]1CO` (stereo not given in full) stands 25.5%. `CCCCCCCCCN1[C@H](CO)[C@H](O)[C@H](O)[C@@H](O)[C@H]1CCl` came in with an inhibition at 30 µM in data set [1] of 54.1%. For the same compound, the Activity result in data set [2] is recorded as “Non-toxic”. Besides, in data set [3], the IC50 was 22 µM.

As for `O=C(O)[C@@H]1N[C@@H](CO)[C@H](O)[C@H](O)[C@H]1O`, the inhibition at 30 µM in data set [1] was 21.2%.

In data set [1], `OC[C@H]1C[C@@H](O)[C@@H](O)[C@@H](CO)N1` registered an inhibition at 30 µM of 22.3%.

Values taken from ChEMBL document CHEMBL3217523, “Design and syntheses of some iminosugar derivatives as potential immunosuppressants” (Medchemcomm, 2011).
